Test results as given in US20260216157A1, “TETRAHYDROTHIOPHENE DERIVATIVE AND USE THEREOF IN MEDICINE” (Haisco Pharmaceutical Group Co., Ltd., priority 2023, published 2026).
One block for each molecule: values may come before it.

Legend:
[1] = Pharmacokinetic test in mice; type: in vivo; settings: C57, mouse, PO 30 mg/kg, plasma
Procedure: Biological Test Example 3: Pharmacokinetic Test in Mice
Experimental animals: C57 mice, 22-25 g, 6 mice/compound.
Experimental design: on the day of the experiment, C57 mice were randomly grouped according to their body weights. The animals were fasted with water available for 12-14 h one day before the administration, and were fed 4 h after the administration.
Before and after the administration, 0.06 mL of blood was taken from the orbit under isoflurane anesthesia, and placed in an EDTAK2 centrifuge tube. Centrifugation was performed at 5000 rpm at 4° C. for 10 min, and the plasma was collected. The blood collection time points for both the intravenous administration group and the intragastric administration group were: 0, 5 min, 15 min, 30 min, 1 h, 2 h, 4 h, 7 h, 24 h and 48 h. Before analysis and detection, all samples were stored at −80° C. The samples were quantitatively analyzed by LC-MS/MS.

hNav1.8 = molecular target: T1, hNav1.8 (Homo sapiens, UniProt Q9Y5Y9); test: Nav1.8 manual patch clamp test; type: cell-based; settings: CHO cells stably expressing human Nav1.8; whole-cell patch clamp, half-inactivated state; read-out: Inhibitory activity (IC50) against hNav1.8
T1 construct: expressed in transfected cells; host or cells: CHO
T1 sequence (Q9Y5Y9 whole entry): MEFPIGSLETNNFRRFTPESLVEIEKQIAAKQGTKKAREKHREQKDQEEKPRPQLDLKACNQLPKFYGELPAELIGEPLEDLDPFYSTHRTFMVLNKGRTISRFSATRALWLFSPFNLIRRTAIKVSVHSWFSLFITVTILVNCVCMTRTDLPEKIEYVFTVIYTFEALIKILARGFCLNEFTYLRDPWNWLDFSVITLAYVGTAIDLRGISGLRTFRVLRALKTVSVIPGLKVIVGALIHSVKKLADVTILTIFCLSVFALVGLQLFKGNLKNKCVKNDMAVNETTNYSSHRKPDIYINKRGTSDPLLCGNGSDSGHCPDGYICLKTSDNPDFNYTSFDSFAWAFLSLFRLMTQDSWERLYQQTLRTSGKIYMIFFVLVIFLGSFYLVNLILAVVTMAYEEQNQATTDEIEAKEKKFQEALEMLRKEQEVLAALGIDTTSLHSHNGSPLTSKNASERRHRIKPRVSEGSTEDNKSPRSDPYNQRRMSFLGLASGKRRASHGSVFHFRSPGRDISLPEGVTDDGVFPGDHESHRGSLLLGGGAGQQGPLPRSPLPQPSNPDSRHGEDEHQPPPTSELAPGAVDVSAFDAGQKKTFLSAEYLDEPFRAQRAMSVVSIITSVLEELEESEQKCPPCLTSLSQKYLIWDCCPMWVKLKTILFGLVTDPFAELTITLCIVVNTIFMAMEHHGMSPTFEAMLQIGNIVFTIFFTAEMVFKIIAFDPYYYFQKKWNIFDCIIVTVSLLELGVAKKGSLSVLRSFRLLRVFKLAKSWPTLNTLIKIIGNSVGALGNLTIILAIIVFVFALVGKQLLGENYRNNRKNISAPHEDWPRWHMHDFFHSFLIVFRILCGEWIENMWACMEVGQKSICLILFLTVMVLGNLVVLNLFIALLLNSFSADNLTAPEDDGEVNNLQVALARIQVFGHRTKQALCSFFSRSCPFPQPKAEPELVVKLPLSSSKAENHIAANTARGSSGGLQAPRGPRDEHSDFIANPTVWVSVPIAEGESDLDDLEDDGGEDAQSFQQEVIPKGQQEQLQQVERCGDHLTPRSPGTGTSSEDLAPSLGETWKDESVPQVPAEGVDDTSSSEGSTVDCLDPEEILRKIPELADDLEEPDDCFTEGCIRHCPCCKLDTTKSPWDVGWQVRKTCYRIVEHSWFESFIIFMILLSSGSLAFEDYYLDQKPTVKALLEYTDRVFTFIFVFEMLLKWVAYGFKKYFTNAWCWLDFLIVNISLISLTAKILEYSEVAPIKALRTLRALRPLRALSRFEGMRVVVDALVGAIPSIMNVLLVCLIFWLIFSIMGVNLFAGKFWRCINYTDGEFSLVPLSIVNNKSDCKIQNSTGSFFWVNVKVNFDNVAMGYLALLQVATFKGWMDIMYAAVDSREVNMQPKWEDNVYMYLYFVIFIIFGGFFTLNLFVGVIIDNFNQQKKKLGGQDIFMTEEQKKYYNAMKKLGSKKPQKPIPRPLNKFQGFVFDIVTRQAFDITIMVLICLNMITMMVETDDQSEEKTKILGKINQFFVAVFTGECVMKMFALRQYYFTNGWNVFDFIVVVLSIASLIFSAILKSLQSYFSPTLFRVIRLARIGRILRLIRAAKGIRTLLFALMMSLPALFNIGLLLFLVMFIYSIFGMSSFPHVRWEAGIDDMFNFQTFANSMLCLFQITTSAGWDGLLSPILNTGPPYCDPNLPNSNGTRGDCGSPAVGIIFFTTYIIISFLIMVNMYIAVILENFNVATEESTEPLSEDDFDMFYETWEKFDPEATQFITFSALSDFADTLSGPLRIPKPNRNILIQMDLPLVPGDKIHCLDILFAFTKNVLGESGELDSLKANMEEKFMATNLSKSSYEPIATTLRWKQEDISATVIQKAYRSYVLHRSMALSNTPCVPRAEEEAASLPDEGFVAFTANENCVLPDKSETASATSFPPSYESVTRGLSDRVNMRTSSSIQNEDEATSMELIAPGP
Procedure: Nav1.8 Manual Patch Clamp Test
CHO cell lines stably expressing human Nav1.8 were cultured in a Ham's F-12 medium containing 10% fetal bovine serum, 10 μg/mL Blasticidin, 200 μg/mL Hygromycin B and 100 μg/mL Zeocin. The cells were cultured at 37° C. with a carbon dioxide concentration of 5%. The old medium was removed, and the cells were rinsed once with PBS. Then, 1 mL of 0.25%-Trypsin-EDTA solution was added, and the cells were incubated at 37° C. for approximately 1.5 min. Once the cells detached from the bottom of the dish, complete medium pre-warmed to 37° C. was added. The cell suspension was gently triturated with a pipette to dissociate the clumped cells. The cell suspension was transferred to a sterile centrifuge tube and centrifuged at 1000 rpm for 5 min to collect the cells. The cells were seeded into 6 cm cell culture dishes at a density of 2.5×10^5 cells per cell culture dish (final volume: 5 mL) for expansion or maintenance culture. To maintain the electrophysiological activity of the cells, the cell density should not exceed 80%. Before patch clamp testing, the cells were dissociated with 0.25%-Trypsin-EDTA. 6.5×10^3 cells were plated onto coverslips and cultured in 24-well plates (final volume: […]) for 18 hours before detection.
The compound was dissolved in dimethyl sulfoxide (DMSO) and prepared into a 30 mM DMSO stock solution. The stock solution was diluted with the extracellular fluid (140 mM NaCl, 3.5 mM KCl, 1 mM MgCl2·6H2O, 2 mM CaCl2·2H2O, 10 mM D-Glucose, 10 mM HEPES and 1.25 mM NaH2PO4·2H2O; adjusted to pH 7.4 with NaOH) to the test concentration, and the final DMSO concentration of all test samples was 0.1%.
(3) Electrophysiological Test
First, the recording electrodes were pulled from capillary glass tubes by using a microelectrode puller. Then, the electrodes were filled with the intracellular fluid (50 mM CsCl, 10 mM NaCl, 10 mM HEPES, 60 mM CsF and 20 mM EGTA; adjusted to pH 7.2 with CsOH) and mounted onto the microelectrode holder. Under an inverted microscope, the microelectrode manipulator was used to immerse the electrodes into the extracellular fluid, and the pipette resistance (Rpip) was recorded. The electrodes were slowly brought into contact with the cell surface, and negative pressure suction was applied to form a […]. At this point, fast capacitance compensation was performed, and negative pressure was continuously applied to break the cell membrane, forming a whole-cell recording mode. Finally, slow capacitance compensation was performed, and experimental parameters such as series resistance (Rs) were recorded. No electric leakage compensation was applied. When the Nav1.8 current in whole-cell recording was stable, drug administration was initiated, with each drug concentration for approximately 5 min (or until the current was stable). The coverslips spread with the cells were placed in a recording chamber under the inverted microscope. The blank control extracellular fluid and the test compound working solution were perfused through the recording chamber via the gravity-driven perfusion method, thereby acting on the cells, and a peristaltic pump was used to facilitate liquid exchange. The current recorded from cells in compound-free extracellular fluid was used as the control group. All electrophysiological experiments were conducted at room temperature. The inhibition rate of compounds on Nav1.8 was determined by calculating the relative percentage of peak currents generated before and after the cells were treated with the compounds.
The voltage stimulation protocol for whole-cell patch clamp recording of Nav1.8 sodium currents was described as follows. When the whole-cell sealing was formed, the cells were clamped at a voltage of −120 mV. First, the voltage was stepped from −110 mV to −30 mV in 10 mV increments and maintained for 5 s, followed by a depolarizing pulse to 0 mV to obtain a half-inactivation voltage (Vhalf). […]

[2] = test system: Spinal nerve ligation (SNL)-induced mouse model of neuropathic pain; test: Spinal nerve ligation (SNL)-induced mouse model of neuropathic pain; type: in vivo, C57BL/6J mice; settings: SNL mice, mechanical pain threshold
Procedure: Biological Test Example 8: Spinal Nerve Ligation (SNL)-Induced Mouse Model of Neuropathic Pain
Male C57BL/6J mice purchased from Zhejiang Vital River Laboratory Animal Technology Co., Ltd. were adaptively raised for one week and then the models were established. […]
The mice that were unsuccessful in modeling were eliminated the next day after modeling (marker for successful modeling: mice with their hind paws curled up). […] After grouping, the test compounds (3 and 30 mg/kg) or vehicles (0.5% methylcellulose) were administered intragastrically, and the mechanical pain threshold (MPT) of the mice was measured at different time points after the administration. […]

CYP2D6 = molecular target: T2, CYP2D6 (Homo sapiens, UniProt P10635); test: CYP450 enzyme inhibition test (human liver microsomes); type: in vitro ADME; settings: read-out: IC50 against CYP2D6
T2 construct: co-incubated with human liver microsomes and test compounds; from tissue; host or cells: human liver microsomes
T2 sequence (P10635 whole entry): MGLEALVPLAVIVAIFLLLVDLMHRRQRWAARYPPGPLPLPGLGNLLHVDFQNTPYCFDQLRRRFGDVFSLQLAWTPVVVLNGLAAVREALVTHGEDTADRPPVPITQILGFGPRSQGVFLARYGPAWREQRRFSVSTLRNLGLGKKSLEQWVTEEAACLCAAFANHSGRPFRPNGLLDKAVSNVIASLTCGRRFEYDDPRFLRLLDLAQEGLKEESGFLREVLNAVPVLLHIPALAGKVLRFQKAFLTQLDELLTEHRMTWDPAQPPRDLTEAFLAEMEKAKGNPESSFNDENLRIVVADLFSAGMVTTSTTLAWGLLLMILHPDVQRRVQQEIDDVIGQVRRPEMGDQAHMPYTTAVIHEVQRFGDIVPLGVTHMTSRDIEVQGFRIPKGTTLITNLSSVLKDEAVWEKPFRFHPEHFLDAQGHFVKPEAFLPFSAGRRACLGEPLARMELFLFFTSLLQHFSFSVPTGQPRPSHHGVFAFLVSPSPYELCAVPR
Procedure: (§1) Biological Test Example 6: CYP450 Enzyme Inhibition Test The purpose of this study was to evaluate the effect of test compounds on the activity of five isoenzymes (CYP1A2, CYP2C9, CYP2C19, CYP2D6, and CYP3A4) of human liver microsomal cytochrome P450 (CYP) by using an in vitro testing system. The specific probe substrates of CYP450 isoenzymes were co-incubated with human liver microsomes and test compounds at different concentrations, and the reaction was initiated by adding reduced nicotinamide adenine dinucleotide phosphate (NADPH). After the completion of the reaction, the samples were treated and subjected to the liquid chromatography-tandem mass spectrometry (LC-MS/MS) to quantitatively detect metabolites produced by the specific substrates. The changes in CYP enzyme activity were determined, and IC50 values were calculated to evaluate the inhibitory potential of the test compounds on each CYP enzyme subtype.

CYP3A4 = molecular target: T3, CYP3A4 (Homo sapiens, UniProt P08684); test: as above; type: in vitro ADME; settings: read-out: IC50 against CYP3A4
T3 construct: co-incubated with human liver microsomes and test compounds; from tissue; host or cells: human liver microsomes
T3 sequence (P08684 whole entry): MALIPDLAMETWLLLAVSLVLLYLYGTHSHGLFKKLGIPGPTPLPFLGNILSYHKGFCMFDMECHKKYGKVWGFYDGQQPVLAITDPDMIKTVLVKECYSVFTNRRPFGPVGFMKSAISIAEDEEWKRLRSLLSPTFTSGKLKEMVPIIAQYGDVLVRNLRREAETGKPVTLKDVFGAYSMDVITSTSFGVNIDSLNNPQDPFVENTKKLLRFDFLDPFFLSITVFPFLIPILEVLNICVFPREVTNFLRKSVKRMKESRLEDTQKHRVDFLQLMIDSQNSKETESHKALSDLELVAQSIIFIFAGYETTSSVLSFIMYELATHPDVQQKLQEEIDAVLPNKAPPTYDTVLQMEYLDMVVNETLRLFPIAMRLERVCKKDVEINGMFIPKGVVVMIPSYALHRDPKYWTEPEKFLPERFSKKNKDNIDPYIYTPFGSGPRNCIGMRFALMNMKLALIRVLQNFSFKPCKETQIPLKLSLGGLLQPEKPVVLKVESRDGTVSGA
Procedure: as §1

CYP2C19 = molecular target: T4, CYP2C19 (Homo sapiens, UniProt P33261); test: as above; type: in vitro ADME; settings: read-out: IC50 against CYP2C19
T4 construct: co-incubated with human liver microsomes and test compounds; from tissue; host or cells: human liver microsomes
T4 sequence (P33261 whole entry): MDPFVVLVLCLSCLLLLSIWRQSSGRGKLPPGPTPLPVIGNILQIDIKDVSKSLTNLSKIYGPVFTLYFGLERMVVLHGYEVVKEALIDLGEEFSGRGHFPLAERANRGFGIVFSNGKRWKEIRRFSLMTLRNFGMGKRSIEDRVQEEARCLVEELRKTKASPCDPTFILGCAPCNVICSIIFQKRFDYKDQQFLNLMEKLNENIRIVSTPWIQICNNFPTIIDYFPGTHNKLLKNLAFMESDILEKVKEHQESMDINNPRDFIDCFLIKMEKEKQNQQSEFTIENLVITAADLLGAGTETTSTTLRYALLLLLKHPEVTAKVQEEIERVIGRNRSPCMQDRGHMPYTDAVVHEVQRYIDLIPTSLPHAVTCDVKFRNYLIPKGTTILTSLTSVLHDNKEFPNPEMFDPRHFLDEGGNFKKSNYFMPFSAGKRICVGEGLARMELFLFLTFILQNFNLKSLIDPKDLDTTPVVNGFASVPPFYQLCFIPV
Procedure: as §1

CYP1A2 = molecular target: T5, CYP1A2 (Homo sapiens, UniProt P05177); test: as above; type: in vitro ADME; settings: read-out: IC50 against CYP1A2
T5 construct: co-incubated with human liver microsomes and test compounds; from tissue; host or cells: human liver microsomes
T5 sequence (P05177 1-516): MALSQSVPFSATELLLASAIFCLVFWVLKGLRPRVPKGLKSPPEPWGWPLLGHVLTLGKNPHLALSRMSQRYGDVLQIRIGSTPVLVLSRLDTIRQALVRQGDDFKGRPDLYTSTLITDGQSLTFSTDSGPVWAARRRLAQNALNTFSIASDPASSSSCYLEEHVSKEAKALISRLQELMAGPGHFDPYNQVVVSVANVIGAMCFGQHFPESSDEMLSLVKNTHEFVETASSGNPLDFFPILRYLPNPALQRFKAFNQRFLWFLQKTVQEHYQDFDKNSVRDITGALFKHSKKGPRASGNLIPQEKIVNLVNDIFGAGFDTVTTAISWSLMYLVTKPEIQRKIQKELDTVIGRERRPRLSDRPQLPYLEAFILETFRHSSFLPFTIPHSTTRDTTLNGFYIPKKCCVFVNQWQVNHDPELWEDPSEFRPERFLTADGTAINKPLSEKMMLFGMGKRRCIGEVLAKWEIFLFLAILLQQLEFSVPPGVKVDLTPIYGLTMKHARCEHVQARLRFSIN
Procedure: as §1

CYP2C9 = molecular target: T6, CYP2C9 (Homo sapiens, UniProt P11712); test: as above; type: in vitro ADME; settings: read-out: IC50 against CYP2C9
T6 construct: co-incubated with human liver microsomes and test compounds; from tissue; host or cells: human liver microsomes
T6 sequence (P11712 whole entry): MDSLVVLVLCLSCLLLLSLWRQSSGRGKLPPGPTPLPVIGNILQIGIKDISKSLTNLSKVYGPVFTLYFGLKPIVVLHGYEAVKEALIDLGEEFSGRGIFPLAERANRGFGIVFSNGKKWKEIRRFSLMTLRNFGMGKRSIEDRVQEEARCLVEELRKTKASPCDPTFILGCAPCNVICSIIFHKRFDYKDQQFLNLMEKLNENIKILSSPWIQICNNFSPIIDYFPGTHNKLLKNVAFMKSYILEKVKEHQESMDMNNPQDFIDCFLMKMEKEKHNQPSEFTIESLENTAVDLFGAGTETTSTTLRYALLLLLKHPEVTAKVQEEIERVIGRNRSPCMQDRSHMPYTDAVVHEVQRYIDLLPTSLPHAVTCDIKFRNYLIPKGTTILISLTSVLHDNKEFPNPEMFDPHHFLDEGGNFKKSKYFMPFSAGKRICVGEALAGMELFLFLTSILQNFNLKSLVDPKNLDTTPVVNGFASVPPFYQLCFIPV
Procedure: as §1

AUC(0-t) [1]: 61600 ± 9480 ng·h/mL
IC50 (hNav1.8): < 0.0001 µM
Compound: COc1c(C2CC(C)(C(F)(F)F)SC2C(=O)Nc2ccnc(C(N)=O)c2)ccc(F)c1F (single isomer, unassigned) [Compound 31-1P1]

IC50 (hNav1.8): < 0.0001 µM
Compound: COc1c([C@H]2[C@H](C(=O)Nc3ccc(F)c(C(N)=O)c3)S[C@@](C)(C(F)(F)F)[C@H]2C)ccc(F)c1F [Compound 6-2a]
analgesic efficacy (area under the time-MPT curve) ([2]; 3 mg/kg intragastric): significant analgesic efficacy
analgesic efficacy (area under the time-MPT curve) ([2]; 30 mg/kg intragastric): significant analgesic efficacy

IC50 (CYP2D6): > 30 µM
IC50 (CYP3A4): > 30 µM
IC50 (CYP2C19): > 30 µM
IC50 (CYP1A2): > 30 µM
IC50 (CYP2C9): > 30 µM
AUC(0-t) [1]: 65100 ± 9200 ng·h/mL
Compound: COc1c([C@H]2[C@H](C(=O)Nc3ccnc(P(C)(C)=O)c3)S[C@@](C)(C(F)(F)F)[C@H]2C)ccc(F)c1F [Compound 58]

IC50 (hNav1.8): < 0.0001 µM
Compound: COc1c([C@H]2[C@H](C(=O)Nc3ccc(F)c(S(N)(=O)=O)c3)S[C@@](C)(C(F)(F)F)[C@H]2C)ccc(F)c1F [Compound 8-1a]
